Results taken from US20070269793A1, “Bioactive Boxes for Cellular Cultures” (priority 2003, published 2007).

How the values were obtained:
Assay type in all cases: cell-based, murine
Fn = Fn synthesis (indirect immunolabelling); conditions: three melanoma lines cultured on PS with MSH
B16 F0 and B16 F10 lines = assay: Proliferation, cell count (Malassez hemocytometer); conditions: B16 F0 and F10 on PS in the presence of MSH 10^−7 M (same in its absence)
Description: (§1) The cells are cultured in medium supplemented by 10% foetal calf serum, 1% L-Glutamine and 0.5% antibiotics (penicillin, streptomycin).
(§2) —b—proliferation: 10,000 cells are seeded per cm^2. The cells are counted (Malassez hemocytometer) after culture for 24 and 48 hours.
(§3) It should be noted that the B16 F0 and B16 F10 lines proliferate more on cellulose that the B16 C3 line, which is non-metastatic. The number of B16 F0 and F10 cells is multiplied by 3 on cellulose. It is multiplied by 6 on PS, in the presence or absence of MSH 10^−7 M melanin-stimulating hormone used as a second control.

B16 C3 line = assay: Proliferation, cell count (Malassez hemocytometer); conditions: B16 C3 on PS in the presence of MSH (same in its absence), 48 hours
Description: as §1, §2, §3

B16 melanoma cells = assay: Calcium dependence of cell aggregation; conditions: absence of Ca^++; 3 lines, after 1 and 3 hours

## melanin-stimulating hormone [MSH]
Fn
  Fn synthesis: increase in Fn synthesis
B16 F0 and B16 F10 lines
  number of cells multiplied by: 6
B16 C3 line
  number of cells multiplied by: 2

## monencin
B16 melanoma cells
  percentage of cells isolated: very significantly increased
